# Source: patent US5594024A, “Centrally actig substituted phenylazacycloalkanes” (priority 1995, dated 1997)
# Read-outs that look alike come from different tables or passages of the source.
# Key:
# [1] = test system: S-(-)-34-induced hypermotility; test: Blockade of S-(-)-34-induced hypermotility in habituated rats; format: in vivo, rat; settings: for effect on S-(-)-34-induced hypermotility: habituated rats, S-(-)-34 50 μmol/kg s.c.
# Description: It was shown that S-(-)-34-induced hypermotility in habituated rats is blocked by haloperidol, raclopride, reserpine and alpha-methyl-para tyrosine. […] The test compounds were administered consecutively at the same time.
# The catecholamine synthesis inhibitor alpha-methyl-para-tyrosine (Sigma, alpha-MT;100 mg/kg, i.p.) was administered 60 minutes before […] ([…], s.c.).
# [2] = test system: d-amphetamine-induced hyperactivity; test: d-Amphetamine-induced hyperactivity in habituated rats; format: in vivo, rat; settings: d-amphetamine 5.0 mg/kg, sc
# D2 receptors = biological target: T1, D2 receptors (Rattus norvegicus, UniProt P61169); test: D2 antagonist binding ([3H]-spiperone), rat striatum
# T1 construct: Preparation of rat striatal membranes for (3H)-spiperone; from tissue; host or cells: rat striatum (striatal membranes)
# T1 sequence (P61169 whole entry): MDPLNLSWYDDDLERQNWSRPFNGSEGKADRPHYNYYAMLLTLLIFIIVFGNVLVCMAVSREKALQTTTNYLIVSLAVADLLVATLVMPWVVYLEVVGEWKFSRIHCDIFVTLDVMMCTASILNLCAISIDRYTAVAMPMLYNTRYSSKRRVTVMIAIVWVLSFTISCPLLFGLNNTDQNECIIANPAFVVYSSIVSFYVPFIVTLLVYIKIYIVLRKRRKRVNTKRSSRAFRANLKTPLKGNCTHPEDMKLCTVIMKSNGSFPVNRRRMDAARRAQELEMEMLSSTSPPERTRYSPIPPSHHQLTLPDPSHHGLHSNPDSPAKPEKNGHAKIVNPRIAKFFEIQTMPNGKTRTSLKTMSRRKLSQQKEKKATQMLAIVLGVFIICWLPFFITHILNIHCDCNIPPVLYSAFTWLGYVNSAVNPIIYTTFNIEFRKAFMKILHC
# Description: D2 antagonist binding. Preparation of rat striatal membranes for (3H)-spiperone (specific activity 21-24 Ci/mmol) binding was carried out in a similar manner as described for D1-binding, Hyttel et al., J. Neural. Transm., 68, 171 (1987).
# IC50 values were calculated by semi-log plot and linear regression analysis.
# habituated rats = test: Locomotor activity and behavior in habituated rats; format: in vivo, rat (male Sprague-Dawley); settings: habituated rats
# Description: (§1) Footnotes Table 3. The rats were habituated to the motility meters 60 min
# prior to the activity session.
# (§2) Injection volumes were 5 mL/kg.
# Locomotor activity was measured in rats which were habituated 60 minutes to the activity meters before drug injection. The activity was measured for the subsequent 60 minutes and expressed as % of controls (means ±SEM, n=4).
# 5-HT receptor [3] = test: 5-HT metabolism (5-HIAA levels) in habituated rats; format: in vivo, rat (male Sprague-Dawley); settings: 100 μmol/kg sc
# Description: as §1
# SEM. The rats were immediately killed after the activity session, striata
# (§3) and limbic levels of DOPAC and 5HIAA were measured by means of HPLCEC. *p
# (§4) In the experiments with habituated rats no NSD was administered and the animals were killed one hour after drug administration. […] The levels were expressed as % of controls (DOPAC and 5-HIAA see Table 3). The in vivo brain microdialysis experiments were performed in conscious rats as described by Waters et al., Eur. J. Pharm., 187, 425-34 (1990).
# Injection volumes were 5 mL/kg. […]
# 5-HT receptor [4] = test: 5-HTP accumulation (5-HT synthesis rate) in non-pretreated rats after NSD 1015; format: in vivo, rat (male Sprague-Dawley)
# Description: observations are commented to the right. After the session the rats were
# accumulation in the NErich cortical regions and 5HTP in the limbic
# as §2
# DA receptor [5] = test: DOPA accumulation (DA synthesis rate) in non-pretreated rats after NSD 1015
# Description: injected with NSD 1015 (100 mg/kg, i.p.) and then killed 30 min later.
# In-vivo determination of rat brain monoamine metabolites and tyrosine and tryptophan hydroxylation (biochemically monitored DA and 5-HT receptor agonist or antagonist activity).
# The compounds under evaluation were tested biochemically for central DA and 5-HT receptor (pre- and/or postsynaptic) stimulating and/or blocking activity. The concept of this biochemical screening method is that a DA or 5-HT receptor agonist will stimulate the receptor and through regulatory negative feed-back systems induce a decline in tyrosine or tryptophan hydroxylating activity, respectively, and a subsequent reduction in the synthesis rate of DA and 5-HT in the presynaptic neuron. […] The biochemical experiments and the determinations of Dopa and 5-HTP by means of HPLC with electrochemical detection were performed. The antagonistic effects were seen as increases in the synthesis rate (n=4), as a result of the positive feed-back upregulation of synthesis. The effects on Dopa and 5-HTP accumulation are expressed as % of controls, which were: DOPA limbic system=447±23 ng/g and DOPA striatum=1045±47ng/g, 5-HTP limbic region 241±2 ng/g (Table 2).
# (§5) Animals used in the biochemical and motor activity experiments were male rats of the Sprague-Dawley strain (ALAB, Sollentuna, Sweden), weighing 200-300 g. The rats were kept 5 per cage with free access to water and food (except for the starved animals for the experiments with per oral administration, who were only allowed water the last 18 hours before testing), at least one week from arrival until used in the experiments.
# (§6) All substances to be tested were dissolved in saline immediately before use, occasionally with the addition of a few drops of glacial acetic acid and/or moderate heating in order to obtain complete dissolution. Injection volumes were 5 mL/kg.
# Analysis of variance (ANOVA) followed by Fischer's test was used for the statistical calculations. P values less than 0.05 were regarded statistically significant.
# DOPA accumulation (DA synthesis rate) in non-pretreated rats (Table 2). After the locomotor activity session (see Table 2, above) the rats were injected with the decarboxylase inhibitor NSD 1015 (100 mg/kg, sc) and killed 30 minutes later. The DOPA accumulation in the DA -rich limbic and striatal and the NE-rich cortical (mainly hemispheres) brain areas were expressed as % of saline treated controls.
# DOPA accumulation, time course after s.c. and p.o. administration (Table 2). […] NSD 1015 (100 mg/kg, sc) was injected 30 minutes before death. The data are expressed as % of saline treated controls.
# non-pretreated rats [6] = test: Locomotor activity and gross behavior in non-habituated (non-pretreated) rats; settings: non-pretreated rats; for Motor Act.: 30 min
# Source text: Immediately after drug administration, the rats were placed in the test cages (one rat/cage) and put into the motility meters. […] Observations of gross behavior were made throughout the activity sessions through semi-transparent mirrors.
# as §5, §6
# Analysis of variance (ANOVA) followed by Fischer's test was used for the statistical calculations.
# In vivo behavioral data was obtained with rats injected with drug and 5 minutes later put into the motility chambers for the first time. The motor activity was measured for the subsequent 30 minutes (accumulated counts/30 minutes) and expressed as % of saline treated controls.
# 5-HT1A = biological target: T2, 5-HT1A (Rattus norvegicus, UniProt P19327); test: 5-HT1A radioligand binding ([3H]-8-OH-DPAT); set-up: species or system rat (male Sprague-Dawley); settings: [3H]-8-OH-DPAT, rat cortex; read-out: in vitro binding IC50, 5HT1A
# T2 construct: the whole brain with the exception of the brainstem and cerebellum was rapidly removed; from tissue
# T2 sequence (P19327 1-422): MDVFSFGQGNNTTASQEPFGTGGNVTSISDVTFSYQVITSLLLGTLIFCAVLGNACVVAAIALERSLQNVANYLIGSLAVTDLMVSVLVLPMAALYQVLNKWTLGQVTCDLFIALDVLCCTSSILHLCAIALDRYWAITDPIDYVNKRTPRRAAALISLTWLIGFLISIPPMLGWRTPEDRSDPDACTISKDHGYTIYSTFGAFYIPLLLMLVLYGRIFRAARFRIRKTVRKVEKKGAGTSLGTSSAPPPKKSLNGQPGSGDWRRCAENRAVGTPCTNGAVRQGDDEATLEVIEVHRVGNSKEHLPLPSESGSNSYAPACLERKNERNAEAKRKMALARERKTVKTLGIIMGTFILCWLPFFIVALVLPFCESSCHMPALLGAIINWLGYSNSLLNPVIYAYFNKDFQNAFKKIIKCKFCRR
# Description: ^b Serotonin 5HT1A ([^3 H]-8OH-DPAT, agonist) rat cortex.
# 5-HT1A radioligand binding. Male Sprague-Dawley rats (160-225 g) were killed by decapitation and the whole brain with the exception of the brainstem and cerebellum was rapidly removed, weighed and chilled in ice-cold 0.9% NaCl. Each brain was homogenized (Ultra-Turrax, 20 s) in 10 mL ice-cold 50 mM Tris buffer (pH 8.0 at 25° C.) containing 120 mM NaCl, 4 mM CaCl2 and 4 mM MgCl2 and centrifuged at 20,000 g's at 4° C. for 10 minutes. Pellets were resuspended in 10 mL fresh buffer and preincubated for 10 minutes in a 37° C. waterbath and then recentrifuged. Final pellets were homogenized in 100 volumes (w/v) of Tris buffer (as described above) containing 10 μM pargyline. The incubation tubes were kept on ice in triplicates and received 100 μL drug solution in water (or water for total binding) and 1000 μL membrane suspension (corresponds to 10 mg original tissue). The binding experiment was initiated by addition of 100 μL of (3H)-8-OH-DPAT (specific activity 143-158 Ci/mmol) in ascorbic acid (the final incubation concentration was 1 nM (3H)-8-OH-DPAT in 0.1% ascorbic acid). After incubation for 15 minutes at 37° C. the reaction was terminated by separation of the free radioligand from bound by rapid vacuum filtration using a cell harvester equipment (O. M. Teknik, Denmark). The tubes were rinsed with 4 mL and the filters (Whatman GF/F 25 mm) were washed twice with 4 mL ice-cold 0.9% NaCl.
# The radioactivity of the filters was measured in a liquid scintillation counter (efficiency 41%) in 5 mL Picofluor®. Specific binding (70-75% of total binding) was defined as the radioactivity displaced by 10 μM 5-HT. IC50 values were calculated by semi-log plot and linear regression analysis.
# DA receptor [7] = test: DA metabolism (DOPAC, HVA levels) in habituated rats; format: in vivo, rat (male Sprague-Dawley); settings: for response vs control in vivo at 100 µmol/kg: Rattus norvegicus, 1 h
# Description: as §1
# The rats were immediately killed after the activity session, striata
# as §3, §4, §2
# After the activity session the rats were killed and the brain levels of HVA and DOPAC were measured (data are expressed as means ±SEM).
# [8] = comparison values, source not given; cited from earlier work
# DA receptor [9] = settings: no NSD1015 treatment; Johansson et al.; cited from earlier work
# DA receptor [10] = settings: after NSD1015; Johansson et al.; cited from earlier work
# non-pretreated rats [11] = settings: Johansson et al.; cited from earlier work
# D3 = settings: Sokoloff, et al., Nature, 347 146-51 (1990); series of classical and atypical neuroleptics; cited from earlier work
# [12] = test system: central dopamine receptors; test: Locomotor activity and DA synthesis in reserpinized rats; format: in vivo, rat
# dopamine autoreceptors = test: GBL-model (DA synthesis rate; presynaptic dopamine autoreceptors); format: in vivo, rat; settings: apomorphine […], sc; GBL 750 mg/kg, i.p.
# Source text: The effects on DOPA accumulation in the GBL-model is considered to reflect an event at the presynaptic dopamine autoreceptors (for further details, see Svensson et al., Nunyn-Schmiedeberg's Arch. Pharm., 334, 234(1986)).
structure (smiles),measurement,setting,value
"CC(N)(Cc1ccc(O)cc1)C(=O)O (stereo not drawn) [alpha-MT, alpha-methyl-para-tyrosine]","motor activity, compound alone","[1]; 100 mg/kg, i.p.",did not affect the motor activity
same,effect on locomotor stimulation produced by S-(-)-34,"[1]; alpha-MT 100 mg/kg, i.p., 60 minutes before",partially inhibited the locomotor stimulation
same,effect on S-(-)-34-induced hypermotility,[1],blocked
"C[C@H](N)Cc1ccccc1 [d-amphetamine, reference compound]","activity of habituated rats, d-amphetamine alone",[2],871±68 % of NaCl controls
"CCCCN1CCC[C@@H](c2cccc(OS(=O)(=O)C(F)(F)F)c2)C1 [S-(-)-16, S-(-)-3-((3-(Trifluoromethyl)sulfonyl)oxyphenyl-N-n-butyl)-piperidine]",IC50,"D2 receptors; [3H]-spiperone, rat striatum; read-out: in vitro binding IC50, D2 -spip",1.3 µM
same,Behavioral observations,habituated rats; 100 μmol/kg sc,Activation
same,response vs control in vivo at 100 µmol/kg,"habituated rats; Rattus norvegicus, 1 h, 100 μmol/kg sc, 60 min, read-out: Motor Activity",345 ± 39%
same,5-HIAA limbic,5-HT receptor [3],109 ± 4 % of saline treated controls
same,5-HTP acc Limbic Region,5-HT receptor [4]; 100 sc,82 ± 5 % of saline controls
same,DOPA acc Cortex,DA receptor [5]; 100 sc,89 ± 9 % of saline controls
same,DOPA acc Stratium,DA receptor [5]; 100 sc,234 ± 10 % of saline controls
same,Gross Behavioral Observations,non-pretreated rats [6]; 100 sc,No change
same,Motor Act.,non-pretreated rats [6]; 100 sc,116 ± 21 % of saline controls
same,IC50,5-HT1A,1.3 µM
same,response vs control in vivo at 100 µmol/kg,"DA receptor [7]; 100 μmol/kg sc, habituated rats, read-out: DOPAC limbic",186 ± 2%
same,response vs control in vivo at 100 µmol/kg,"DA receptor [7]; 100 μmol/kg sc, habituated rats, read-out: DOPAC striatum",192 ± 4%
O=C(CCCN1CCC(O)(c2ccc(Cl)cc2)CC1)c1ccc(F)cc1 [haloperidol],effect on S-(-)-34-induced hypermotility,[1],blocked
"CCCN(CCC)[C@@H]1CCc2c(OC)cccc2[C@@H]1C [(+)-UH232, (+)-cis-1S,2R-5-methoxy-1-methyl-2-(N,N-di-n-propylamino)tetralin]",oral availability,[8],approximately 6%
same,levels of the DA metabolites DOPAC and HVA,DA receptor [9],raise the levels of the DA metabolites DOPAC and HVA
same,Dopa accumulation in normal animals,DA receptor [10],raise the Dopa accumulation
same,locomotor activity (photocell motility meters),non-pretreated rats [11],increase the locomotor activity
same,preference for the D3 site,D3,highest preference for the D3 site
CCN1CCC[C@H]1CNC(=O)c1c(O)c(Cl)cc(Cl)c1OC [raclopride],effect on S-(-)-34-induced hypermotility,[1],blocked
"CCCN1CCC[C@H](c2cccc(C#N)c2)C1 [R-(+)-34, R-(+)-3-(3-Cyanophenyl-N-n-propyl)piperidine]",affinity for D2 receptors (in words),D2 receptors; (3H)-Spiperone binding,essentially no affinity for D2 receptors
same,IC50,"D2 receptors; read-out: in vitro binding IC50, D2 -spip; [3H]-spiperone, rat striatum",100 µM
same,Behavioral observations,habituated rats; 100 μmol/kg sc,Activation
same,locomotor activity in habituated rats (in words),habituated rats,stimulates the locomotor activity in habituated rats
same,5-HTP acc Limbic Region,5-HT receptor [4]; 50 po,99 ± 3 % of saline controls
same,5-HTP acc Limbic Region,5-HT receptor [4]; 50 sc,82 ± 1 % of saline controls
same,DOPA acc Cortex,DA receptor [5]; 50 po,103 ± 9 % of saline controls
same,DOPA acc Stratium,DA receptor [5]; 50 po,172 ± 8 % of saline controls
same,DOPA acc Cortex,DA receptor [5]; 50 sc,145 ± 11 % of saline controls
same,DOPA acc Stratium,DA receptor [5]; 50 sc,281 ± 11 % of saline controls
same,Gross Behavioral Observations,non-pretreated rats [6]; 50 po,No change
same,Motor Act.,non-pretreated rats [6]; 50 po,133 ± 14 % of saline controls
same,Gross Behavioral Observations,non-pretreated rats [6]; 50 sc,stimulat.
same,IC50,5-HT1A,14 µM
same,response vs control in vivo at 100 µmol/kg,"DA receptor [7]; sc, read-out: DOPAC limbic",120 ± 5%
same,response vs control in vivo at 100 µmol/kg,"DA receptor [7]; sc, read-out: DOPAC striatum",117 ± 3%
same,limbic DOPAC levels (in words),"DA receptor [7]; rat, in vivo",only weakly elevated limbic DOPAC
same,motor activity in reserpinized rats,"[12]; 50 μmol/kg, sc, reserpine 5 mg/kg, 18 h before",6±2 counts/30 min
same,DA synthesis rate / DOPA accumulation in reserpinized rats (in words),[12]; reserpinized rats,failed to produce locomotor stimulation or to affect the DA synthesis rate in reserpinized rats
same,locomotor stimulation in reserpinized rats (in words),[12]; reserpinized rats,failed to activate the reserpinized rats
same,locomotor stimulation in reserpinized rats (in words),"[12]; reserpinized rats, listed as (R)-34",failed to produce locomotor stimulation
"CN1CCc2cccc3c2[C@H]1Cc1ccc(O)c(O)c1-3 [apomorphine, reference compound]",effect on GBL-elevated limbic and striatal DA synthesis rate,dopamine autoreceptors,completely reversed
COC(=O)[C@H]1[C@H]2C[C@@H]3c4[nH]c5cc(OC)ccc5c4CCN3C[C@H]2C[C@@H](OC(=O)c2cc(OC)c(OC)c(OC)c2)[C@@H]1OC [reserpine],effect on S-(-)-34-induced hypermotility,[1],blocked
same,effect on locomotor stimulation produced by S-(-)-34,"[1]; reserpine 5 mg/kg, 18 h before, S-(-)-34 50 μmol/kg, sc",completely prevented the locomotor stimulation
